Experimental data: patent US20200270309A1, “MALEIMIDE GROUP-MODIFIED ANGIOGENESIS INHIBITOR HM-1 AND USE THEREOF” (NANJING ANJI BIOLOGICAL TECHNOLOGY CO., LTD, priority 2017, published 2020)
Where two headings read alike, the source gives them in different places. Peptide text beside a SMILES is read from it. * marks the point of attachment. MaleimidoPEG4propanoyl = O=C1C=CC(=O)N1CCOCCOCCOCCOCCC(=O)*; X18 = O=C1C=CC(=O)N1CCOCCOCCOCCOCCOCCOCCCCCCCC(=O)*; Hexanoyl(6-maleimido) = O=C1C=CC(=O)N1CCCCCC(=O)*; X41 = O=C1C=CC(=O)N1c1ccc(CCCCCCCCCCCCC(=O)*)cc1; Propanoyl(3-maleimido) = O=C1C=CC(=O)N1CCC(=O)*; X14 = O=C1C=CC(=O)N1CCOCCOCCOCCOCCOCCCCCCC(=O)*; X29 = O=C1C=CC(=O)N1CCOCCOCCOCCOCCOCCOCCCC(=O)*; X26 = O=C1C=CC(=O)N1CCOCCOCCOCCOCCOCCCCC(=O)*; X6 = O=C1C=CC(=O)N1CCOCCOCCOCCCCCCCC(=O)*; X33 = O=C1C=CC(=O)N1CCOCCOCCOCCCCC(=O)*; X47 = O=C1C=CC(=O)N1c1ccccc1CCCCC(=O)*; X15 = O=C1C=CC(=O)N1CCOCCOCCOCCC(=O)*; X77 = O=C1C=CC(=O)N1CCCCCCCCCCC(=O)*; X21 = O=C1C=CC(=O)N1CCOCCCCCCC(=O)*; X57 = O=C1C=CC(=O)N1CCCCCCCC(=O)*

Test: Half-lives and pharmacokinetic parameters of polypeptides vs HM-1
Set-up: AUC0-∞: concentration or dose not given beside the values
Settings: in vivo
[1] = read-out: T1/2β (half-life) (converted)

Row | SMILES | AUC0-∞ | half-life [1] | AUC(0-inf) | MRT inf | clearance | half-life (T1/2β (half-life)) | AUC(0-inf) (read-out: AUC0-∞) | clearance (read-out: CL (converted)) | MRT inf (read-out: MRT0-∞)
1 | CC[C@H](C)[C@H](NC(=O)[C@H](Cc1c[nH]cn1)NC(=O)[C@H](CCC(N)=O)NC(=O)[C@H](CCCNC(=N)N)NC(=O)CCCCCN1C(=O)C=CC1=O)C(=O)N[C@@H](Cc1ccccc1)C(=O)N1CCC[C@H]1C(=O)N[C@@H](CO)C(=O)N[C@H](C(=O)N[C@@H](Cc1c[nH]c2ccccc12)C(=O)N[C@@H](Cc1ccccc1)C(=O)N[C@@H](Cc1c[nH]c2ccccc12)C(=O)N[C@@H](Cc1ccc(O)cc1)C(=O)N[C@@H](Cc1ccc(O)cc1)C(=O)N1CCC[C@H]1C(=O)N[C@@H](CC(=O)O)C(=O)N[C@@H](CCCNC(=N)N)C(=O)N[C@@H](CC(C)C)C(=O)N[C@@H](CCCCN)C(=O)N[C@@H](CCSC)C(=O)N[C@@H](CCCNC(=N)N)C(=O)N[C@@H](CCC(=O)O)C(=O)N[C@@H](CC(=O)O)C(=O)O)[C@@H](C)O [P4] ({Hexanoyl(6-maleimido)}-RQHIFPSTWFWYYPDRLKMRED-OH; C-terminus assumed) | 0.0391 ± 0.0066 mg/L/h | 1903 ± 15.6 min | – | – | – | – | – | – | –
2 | C[C@H](NC(=O)CNC(=O)[C@H](CCCNC(=N)N)NC(=O)CCCCc1ccccc1N1C(=O)C=CC1=O)C(=O)N[C@@H](CC(=O)O)C(=O)N[C@@H](CCCNC(=N)N)C(=O)N[C@@H](C)C(=O)NCC(=O)NCC(=O)NCC(=O)NCC(=O)N[C@@H](CCCNC(=N)N)C(=O)NCC(=O)N[C@@H](CC(=O)O)C(=O)O [X16] (X47-RGADRAGGGGRGD-OH) | – | – | 31400 ± 8390 ng·h/mL | 56.3 ± 13.6 h | 0.53 mL/min/kg | 2340 ± 14.4 min | – | – | –
3 | C[C@H](NC(=O)CNC(=O)[C@H](CCCNC(=N)N)NC(=O)CCCCCCCCCCCCc1ccc(N2C(=O)C=CC2=O)cc1)C(=O)N[C@@H](CC(=O)O)C(=O)N[C@@H](CCCNC(=N)N)C(=O)N[C@@H](C)C(=O)NCC(=O)NCC(=O)NCC(=O)NCC(=O)N[C@@H](CCCNC(=N)N)C(=O)NCC(=O)N[C@@H](CC(=O)O)C(=O)O [X48] (X41-RGADRAGGGGRGD-OH) | – | – | 29200 ± 7650 ng·h/mL | 52.9 ± 12.1 h | 0.565 mL/min/kg | 2198 ± 16.2 min | – | – | –
4 | C[C@H](NC(=O)CNC(=O)[C@H](CCCNC(=N)N)NC(=O)CCCCCCCCCCN1C(=O)C=CC1=O)C(=O)N[C@@H](CC(=O)O)C(=O)N[C@@H](CCCNC(=N)N)C(=O)N[C@@H](C)C(=O)NCC(=O)NCC(=O)NCC(=O)NCC(=O)N[C@@H](CCCNC(=N)N)C(=O)NCC(=O)N[C@@H](CC(=O)O)C(=O)O [X10] (X77-RGADRAGGGGRGD-OH) | – | – | 31200 ± 7210 ng·h/mL | 55.8 ± 12.9 h | 0.535 mL/min/kg | 2318 ± 15 min | – | – | –
5 | C[C@H](NC(=O)CNC(=O)[C@H](CCCNC(=N)N)NC(=O)CCCCCCCN1C(=O)C=CC1=O)C(=O)N[C@@H](CC(=O)O)C(=O)N[C@@H](CCCNC(=N)N)C(=O)N[C@@H](C)C(=O)NCC(=O)NCC(=O)NCC(=O)NCC(=O)N[C@@H](CCCNC(=N)N)C(=O)NCC(=O)N[C@@H](CC(=O)O)C(=O)O [X7] (X57-RGADRAGGGGRGD-OH) | – | – | 34500 ± 6960 ng·h/mL | 61.8 ± 14.3 h | 0.485 mL/min/kg | 2570 ± 17.4 min | – | – | –
6 | C[C@H](NC(=O)[C@H](CCCNC(=N)N)NC(=O)[C@H](CC(=O)O)NC(=O)CNC(=O)[C@H](CCCNC(=N)N)NC(=O)CCN1C(=O)C=CC1=O)C(=O)NCC(=O)NCC(=O)NCC(=O)NCC(=O)N[C@@H](CCCNC(=N)N)C(=O)NCC(=O)N[C@@H](CC(=O)O)C(=O)O [P7] ({Propanoyl(3-maleimido)}-RGDRAGGGGRGD-OH; C-terminus assumed) | – | 2378 ± 16.8 min | – | – | – | – | 32000 ± 7820 ng·h/mL | 0.522 mL/min/kg | 57.2 ± 13.9 h
7 | C[C@H](NC(=O)CNC(=O)[C@H](CCCNC(=N)N)NC(=O)CCOCCOCCOCCN1C(=O)C=CC1=O)C(=O)N[C@@H](CC(=O)O)C(=O)N[C@@H](CCCNC(=N)N)C(=O)N[C@@H](C)C(=O)NCC(=O)NCC(=O)NCC(=O)NCC(=O)N[C@@H](CCCNC(=N)N)C(=O)NCC(=O)N[C@@H](CC(=O)O)C(=O)O [X64] (X15-RGADRAGGGGRGD-OH) | – | – | 32300 ± 7250 ng·h/mL | 57.7 ± 13 h | 0.517 mL/min/kg | 2398 ± 16.8 min | – | – | –
8 | C[C@H](NC(=O)[C@H](CCCNC(=N)N)NC(=O)[C@H](CC(=O)O)NC(=O)CNC(=O)[C@H](CCCNC(=N)N)NC(=O)CCCCCN1C(=O)C=CC1=O)C(=O)NCC(=O)NCC(=O)NCC(=O)NCC(=O)N[C@@H](CCCNC(=N)N)C(=O)NCC(=O)N[C@@H](CC(=O)O)C(=O)O [P8] ({Hexanoyl(6-maleimido)}-RGDRAGGGGRGD-OH; C-terminus assumed) | – | 2320 ± 16.2 min | – | – | – | – | 31200 ± 8090 ng·h/mL | 0.535 mL/min/kg | 55.8 ± 13.4 h
9 | C[C@H](NC(=O)CNC(=O)[C@H](CCCNC(=N)N)NC(=O)CCCCCCOCCN1C(=O)C=CC1=O)C(=O)N[C@@H](CC(=O)O)C(=O)N[C@@H](CCCNC(=N)N)C(=O)N[C@@H](C)C(=O)NCC(=O)NCC(=O)NCC(=O)NCC(=O)N[C@@H](CCCNC(=N)N)C(=O)NCC(=O)N[C@@H](CC(=O)O)C(=O)O [X54] (X21-RGADRAGGGGRGD-OH) | – | – | 27200 ± 7640 ng·h/mL | 48.8 ± 11.2 h | 0.612 mL/min/kg | 2030 ± 15 min | – | – | –
10 | C[C@H](NC(=O)CNC(=O)[C@H](CCCNC(=N)N)NC(=O)CCCCCN1C(=O)C=CC1=O)C(=O)N[C@@H](CC(=O)O)C(=O)N[C@@H](CCCNC(=N)N)C(=O)N[C@@H](C)C(=O)N[C@@H](CCC(=O)O)C(=O)N[C@@H](C)C(=O)N[C@@H](C)C(=O)N[C@@H](C)C(=O)N[C@@H](CCCCN)C(=O)N[C@@H](CCCNC(=N)N)C(=O)NCC(=O)N[C@@H](CC(=O)O)C(=O)O [P12] ({Hexanoyl(6-maleimido)}-RGADRAEAAAKRGD-OH; C-terminus assumed) | – | 2534 ± 17.4 min | – | – | – | – | 34000 ± 6880 ng·h/mL | 0.49 mL/min/kg | 61 ± 10.1 h

More lines, now with the values ahead:

Row | AUC0-∞ | half-life [1] | AUC(0-inf) | MRT inf | clearance | half-life (T1/2β (half-life)) | AUC(0-inf) (read-out: AUC0-∞) | clearance (read-out: CL (converted)) | MRT inf (read-out: MRT0-∞) | SMILES
11 | – | – | 25800 ± 8050 ng·h/mL | 46.2 ± 10.2 h | 0.645 mL/min/kg | 1922 ± 18.6 min | – | – | – | C[C@H](NC(=O)CNC(=O)[C@H](CCCNC(=N)N)NC(=O)CCCOCCOCCOCCOCCOCCOCCN1C(=O)C=CC1=O)C(=O)N[C@@H](CC(=O)O)C(=O)N[C@@H](CCCNC(=N)N)C(=O)N[C@@H](C)C(=O)NCC(=O)NCC(=O)NCC(=O)NCC(=O)N[C@@H](CCCNC(=N)N)C(=O)NCC(=O)N[C@@H](CC(=O)O)C(=O)O [X86] (X29-RGADRAGGGGRGD-OH)
12 | – | – | 25700 ± 7220 ng·h/mL | 46 ± 13.6 h | 0.648 mL/min/kg | 1910 ± 21 min | – | – | – | C[C@H](NC(=O)CNC(=O)[C@H](CCCNC(=N)N)NC(=O)CCCCCCOCCOCCOCCOCCOCCN1C(=O)C=CC1=O)C(=O)N[C@@H](CC(=O)O)C(=O)N[C@@H](CCCNC(=N)N)C(=O)N[C@@H](C)C(=O)NCC(=O)NCC(=O)NCC(=O)NCC(=O)N[C@@H](CCCNC(=N)N)C(=O)NCC(=O)N[C@@H](CC(=O)O)C(=O)O [X82] (X14-RGADRAGGGGRGD-OH)
13 | – | – | 27700 ± 7510 ng·h/mL | 49.6 ± 9.77 h | 0.602 mL/min/kg | 2063 ± 15 min | – | – | – | C[C@H](NC(=O)CNC(=O)[C@H](CCCNC(=N)N)NC(=O)CCCCOCCOCCOCCN1C(=O)C=CC1=O)C(=O)N[C@@H](CC(=O)O)C(=O)N[C@@H](CCCNC(=N)N)C(=O)N[C@@H](C)C(=O)NCC(=O)NCC(=O)NCC(=O)NCC(=O)N[C@@H](CCCNC(=N)N)C(=O)NCC(=O)N[C@@H](CC(=O)O)C(=O)O [X66] (X33-RGADRAGGGGRGD-OH)
14 | – | – | 34500 ± 7330 ng·h/mL | 61.6 ± 11.7 h | 0.483 mL/min/kg | 2563 ± 15 min | – | – | – | C[C@H](NC(=O)CNC(=O)[C@H](CCCNC(=N)N)NC(=O)CCCCOCCOCCOCCOCCOCCN1C(=O)C=CC1=O)C(=O)N[C@@H](CC(=O)O)C(=O)N[C@@H](CCCNC(=N)N)C(=O)N[C@@H](C)C(=O)NCC(=O)NCC(=O)NCC(=O)NCC(=O)N[C@@H](CCCNC(=N)N)C(=O)NCC(=O)N[C@@H](CC(=O)O)C(=O)O [X80] (X26-RGADRAGGGGRGD-OH)
15 | – | – | 27600 ± 8160 ng·h/mL | 49.3 ± 11.5 h | 0.605 mL/min/kg | 2051 ± 18.6 min | – | – | – | C[C@H](NC(=O)CNC(=O)[C@H](CCCNC(=N)N)NC(=O)CCCCCCCOCCOCCOCCOCCOCCOCCN1C(=O)C=CC1=O)C(=O)N[C@@H](CC(=O)O)C(=O)N[C@@H](CCCNC(=N)N)C(=O)N[C@@H](C)C(=O)NCC(=O)NCC(=O)NCC(=O)NCC(=O)N[C@@H](CCCNC(=N)N)C(=O)NCC(=O)N[C@@H](CC(=O)O)C(=O)O [X90] (X18-RGADRAGGGGRGD-OH)
16 | – | – | 28300 ± 8140 ng·h/mL | 50.7 ± 13.4 h | 0.588 mL/min/kg | 2108 ± 20.4 min | – | – | – | C[C@H](NC(=O)CNC(=O)[C@H](CCCNC(=N)N)NC(=O)CCOCCOCCOCCOCCN1C(=O)C=CC1=O)C(=O)N[C@@H](CC(=O)O)C(=O)N[C@@H](CCCNC(=N)N)C(=O)N[C@@H](C)C(=O)NCC(=O)NCC(=O)NCC(=O)NCC(=O)N[C@@H](CCCNC(=N)N)C(=O)NCC(=O)N[C@@H](CC(=O)O)C(=O)O [X71] (MaleimidoPEG4propanoyl-RGADRAGGGGRGD-OH)
17 | – | – | 26900 ± 8290 ng·h/mL | 48.2 ± 14.3 h | 0.62 mL/min/kg | 2003 ± 19.2 min | – | – | – | C[C@H](NC(=O)CNC(=O)[C@H](CCCNC(=N)N)NC(=O)CCCCCCCOCCOCCOCCN1C(=O)C=CC1=O)C(=O)N[C@@H](CC(=O)O)C(=O)N[C@@H](CCCNC(=N)N)C(=O)N[C@@H](C)C(=O)NCC(=O)NCC(=O)NCC(=O)NCC(=O)N[C@@H](CCCNC(=N)N)C(=O)NCC(=O)N[C@@H](CC(=O)O)C(=O)O [X69] (X6-RGADRAGGGGRGD-OH)
